Experimental data reported in patent US20230085307A1, “PYRIDAZINONE COMPOUND AND HERBICIDE” (NISSAN CHEMICAL CORPORATION, priority 2019, published 2023).

Experiments:
persian speedwell [1] = experiment: Test Example 4: herbicidal effect by soil treatment (Table 19, symbol R); assay type: in vivo, Persian speedwell (Veronica persica); details: 269 g/ha
Procedure, shortened: (§1)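 Pre-emergence style soil spray: seeds under ~1.5 cm sterilized diluvial soil received a uniform coat of emulsion diluted to the predetermined herbicide amount. Greenhouse 25–30° C; readout at week three on previously defined criteria.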

barnyard grass [2] = experiment: Test Example 5: herbicidal effect by foliage application, plastic box (Table 20, symbol H); assay type: in vivo, barnyard grass (Echinochloa crus-galli); details: foliage application, 269 g/ha, evaluated three weeks after application
Procedure, shortened: (§2)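 Plants were sown into sterilized diluvial soil under about 1.5 cm cover and kept in a greenhouse at 25° C. to 30° C. Fourteen days on, foliage received an even spray of the diluted emulsion. Herbicidal or crop effect was judged three weeks afterwards.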

persian speedwell [3] = experiment: Test Example 5: herbicidal effect by foliage application, plastic box (Table 20, symbol R); assay type: in vivo, Persian speedwell (Veronica persica); details: foliage application, 269 g/ha, evaluated three weeks after application
Procedure, shortened: as §2

wild oat [4] = experiment: Test Example 5: herbicidal effect by foliage application, plastic box (Table 20, symbol I); assay type: in vivo, wild oat (Avena fatua); details: foliage application, 269 g/ha, evaluated three weeks after application
Procedure, shortened: as §2

chickweed [5] = experiment: Test Example 4: herbicidal effect by soil treatment (Table 19, symbol P); assay type: in vivo, common chickweed (Stellaria media); details: 269 g/ha
Procedure, shortened: as §1

late watergrass = experiment: Test Example 1: herbicidal activity, application before weed generation under submerged conditions (Table 16, symbol A); assay type: in vivo, late watergrass (Echinochloa oryzicola); details: 269 g/ha applied herbicide
Procedure, shortened: (§3)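 Alluvial soil was flooded to 4 cm depth, weed seeds were sown mixed and 2.5-leaf rice seedlings were transplanted. On sowing day, the compound's emulsion, diluted in water to a set dose, was applied to the water surface. Plants grew at 25–30 °C and were scored 0–5 after three weeks.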

blackgrass [6] = experiment: Test Example 4: herbicidal effect by soil treatment (Table 19, symbol J); assay type: in vivo, blackgrass (Alopecurus myosuroides); details: 269 g/ha
Procedure, shortened: as §1

wild oat [7] = experiment: Test Example 4: herbicidal effect by soil treatment (Table 19, symbol I); assay type: in vivo, wild oat (Avena fatua); details: 269 g/ha
Procedure, shortened: as §1

velvetleaf [8] = experiment: Test Example 4: herbicidal effect by soil treatment (Table 19, symbol M); assay type: in vivo, velvetleaf (Abutilon theophrasti); details: 269 g/ha
Procedure, shortened: as §1

lambsquarters [9] = experiment: Test Example 4: herbicidal effect by soil treatment (Table 19, symbol O); assay type: in vivo, lambsquarters (Chenopodium album); details: 269 g/ha
Procedure, shortened: as §1

Italian ryegrass [10] = experiment: Test Example 5: herbicidal effect by foliage application, plastic box (Table 20, symbol K); assay type: in vivo, Italian ryegrass (Lolium multiflorum); details: foliage application, 269 g/ha, evaluated three weeks after application
Procedure, shortened: as §2

Chinese sprangletop = experiment: Test Example 3: herbicidal effect by foliage application, Wagner pot (Table 18, symbol D); assay type: in vivo, chinese sprangletop (Leptochloa chinensis); details: 269 g/ha
Procedure, shortened: (§4)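 Plants were sown in alluvial soil held under 0.1–0.5 cm standing water and grown 14 days in a greenhouse at 25–30 °C. An emulsifiable formulation, water-diluted to the set dose, was then sprayed onto the foliage, and effects were scored three weeks later using previously defined criteria.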

redroot pigweed [11] = experiment: Test Example 4: herbicidal effect by soil treatment (Table 19, symbol N); assay type: in vivo, redroot pigweed (Amaranthus retroflexus); details: 269 g/ha
Procedure, shortened: as §1

chickweed [12] = experiment: Test Example 5: herbicidal effect by foliage application, plastic box (Table 20, symbol P); assay type: in vivo, common chickweed (Stellaria media); details: foliage application, 269 g/ha, evaluated three weeks after application
Procedure, shortened: as §2

Italian ryegrass [13] = experiment: Test Example 4: herbicidal effect by soil treatment (Table 19, symbol K); assay type: in vivo, Italian ryegrass (Lolium multiflorum); details: 269 g/ha
Procedure, shortened: as §1

oval-leafed pondweed = experiment: Test Example 1: herbicidal activity, application before weed generation under submerged conditions (Table 16, symbol C); assay type: in vivo, oval-leafed pondweed (Monochoria vaginalis); details: 269 g/ha applied herbicide
Procedure, shortened: as §3

green foxtail [14] = experiment: Test Example 4: herbicidal effect by soil treatment (Table 19, symbol G); assay type: in vivo, green foxtail (Setaria viridis); details: 269 g/ha
Procedure, shortened: as §1

green foxtail [15] = experiment: Test Example 5: herbicidal effect by foliage application, plastic box (Table 20, symbol G); assay type: in vivo, green foxtail (Setaria viridis); details: foliage application, 269 g/ha, evaluated three weeks after application
Procedure, shortened: as §2

windgrass [16] = experiment: Test Example 4: herbicidal effect by soil treatment (Table 19, symbol L); assay type: in vivo, windgrass (Apera spica-venti); details: 269 g/ha
Procedure, shortened: as §1

blackgrass [17] = experiment: Test Example 5: herbicidal effect by foliage application, plastic box (Table 20, symbol J); assay type: in vivo, blackgrass (Alopecurus myosuroides); details: foliage application, 269 g/ha, evaluated three weeks after application
Procedure, shortened: as §2

Japanese bulrush = experiment: Test Example 1: herbicidal activity, application before weed generation under submerged conditions (Table 16, symbol B); assay type: in vivo, Japanese bulrush (Schoenoplectus juncoides); details: 269 g/ha applied herbicide
Procedure, shortened: as §3

barnyard grass [18] = experiment: Test Example 3: herbicidal effect by foliage application, Wagner pot (Table 18, symbol H); assay type: in vivo, barnyard grass (Echinochloa crus-galli); details: 269 g/ha
Procedure, shortened: as §4

rice flat sedge = experiment: Test Example 3: herbicidal effect by foliage application, Wagner pot (Table 18, symbol E); assay type: in vivo, rice flat sedge (Cyperus iria); details: 269 g/ha
Procedure, shortened: as §4

lambsquarters [19] = experiment: Test Example 5: herbicidal effect by foliage application, plastic box (Table 20, symbol O); assay type: in vivo, lambsquarters (Chenopodium album); details: foliage application, 269 g/ha, evaluated three weeks after application
Procedure, shortened: as §2

redroot pigweed [20] = experiment: Test Example 5: herbicidal effect by foliage application, plastic box (Table 20, symbol N); assay type: in vivo, redroot pigweed (Amaranthus retroflexus); details: foliage application, 269 g/ha, evaluated three weeks after application
Procedure, shortened: as §2

southern crabgrass [21] = experiment: Test Example 5: herbicidal effect by foliage application, plastic box (Table 20, symbol F); assay type: in vivo, southern crabgrass (Digitaria ciliaris); details: foliage application, 269 g/ha, evaluated three weeks after application
Procedure, shortened: as §2

southern crabgrass [22] = experiment: Test Example 4: herbicidal effect by soil treatment (Table 19, symbol F); assay type: in vivo, southern crabgrass (Digitaria ciliaris); details: 269 g/ha
Procedure, shortened: as §1

velvetleaf [23] = experiment: Test Example 5: herbicidal effect by foliage application, plastic box (Table 20, symbol M); assay type: in vivo, velvetleaf (Abutilon theophrasti); details: foliage application, 269 g/ha, evaluated three weeks after application
Procedure, shortened: as §2

windgrass [24] = experiment: Test Example 5: herbicidal effect by foliage application, plastic box (Table 20, symbol L); assay type: in vivo, windgrass (Apera spica-venti); details: foliage application, 269 g/ha, evaluated three weeks after application
Procedure, shortened: as §2

barnyard grass [25] = experiment: Test Example 4: herbicidal effect by soil treatment (Table 19, symbol H); assay type: in vivo, barnyard grass (Echinochloa crus-galli); details: 269 g/ha
Procedure, shortened: as §1

With COCCOCOc1c(C)nn(C)c(=O)c1-c1c(-c2ccc(OCCSC)cc2)sc2ccc(F)cc12 [2-059] the “herbicidal effect rating, R: persian speedwell” value (persian speedwell [1]) was 5 (Herbicidal rate of 90% or more (almost completely withered)), the “herbicidal effect on H: barnyard grass” value (barnyard grass [2]) was 5 (Herbicidal rate of 90% or more (almost completely withered)) and the “herbicidal effect on R: persian speedwell” value (persian speedwell [3]) was 5 (Herbicidal rate of 90% or more (almost completely withered)). For the same compound, the “herbicidal effect on I: wild oat” value (wild oat [4]) was 4 (Herbicidal rate of 70% or more and less than 90%), the “herbicidal effect rating, P: chickweed” value (chickweed [5]) was 4 (Herbicidal rate of 70% or more and less than 90%) and the “Herbicidal effect on A: late watergrass (grade 0-5)” value (late watergrass) was 3 (Herbicidal rate of 40% or more and less than 70%). The “herbicidal effect rating, J: blackgrass” value (blackgrass [6]) was 0 (Herbicidal rate of 5% or less (almost no effect)), the “herbicidal effect rating, I: wild oat” value (wild oat [7]) was 0 (Herbicidal rate of 5% or less (almost no effect)) and the “herbicidal effect rating, M: velvetleaf” value (velvetleaf [8]) was 1 (Herbicidal rate of 5% or more and less than 20%). For the same compound, the “herbicidal effect rating, O: lambsquarters” value (lambsquarters [9]) was 5 (Herbicidal rate of 90% or more (almost completely withered)), the “herbicidal effect on K: Italian ryegrass” value (Italian ryegrass [10]) was 5 (Herbicidal rate of 90% or more (almost completely withered)) and the “herbicidal effect on D (Chinese sprangletop), rating 0-5” value (Chinese sprangletop) was 5 (Herbicidal rate of 90% or more (almost completely withered)). For the same compound, the “herbicidal effect rating, N: redroot pigweed” value (redroot pigweed [11]) was 5 (Herbicidal rate of 90% or more (almost completely withered)), the “herbicidal effect on P: chickweed” value (chickweed [12]) was 5 (Herbicidal rate of 90% or more (almost completely withered)) and the “herbicidal effect rating, K: Italian ryegrass” value (Italian ryegrass [13]) was 4 (Herbicidal rate of 70% or more and less than 90%). For the same compound, the “Herbicidal effect on C: oval-leafed pondweed (grade 0-5)” value (oval-leafed pondweed) was 4 (Herbicidal rate of 70% or more and less than 90%), the “herbicidal effect rating, G: green foxtail” value (green foxtail [14]) was 5 (Herbicidal rate of 90% or more (almost completely withered)) and the “herbicidal effect on G: green foxtail” value (green foxtail [15]) was 5 (Herbicidal rate of 90% or more (almost completely withered)). For the same compound, the “herbicidal effect rating, L: windgrass” value (windgrass [16]) was 4 (Herbicidal rate of 70% or more and less than 90%), the “herbicidal effect on J: blackgrass” value (blackgrass [17]) was 5 (Herbicidal rate of 90% or more (almost completely withered)) and the “Herbicidal effect on B: Japanese bulrush (grade 0-5)” value (Japanese bulrush) was 3 (Herbicidal rate of 40% or more and less than 70%). The “herbicidal effect on H (barnyard grass), rating 0-5” value (barnyard grass [18]) was 5 (Herbicidal rate of 90% or more (almost completely withered)), the “herbicidal effect on E (rice flat sedge), rating 0-5” value (rice flat sedge) was 5 (Herbicidal rate of 90% or more (almost completely withered)) and the “herbicidal effect on O: lambsquarters” value (lambsquarters [19]) was 5 (Herbicidal rate of 90% or more (almost completely withered)). The “herbicidal effect on N: redroot pigweed” value (redroot pigweed [20]) was 5 (Herbicidal rate of 90% or more (almost completely withered)), the “herbicidal effect on F: southern crabgrass” value (southern crabgrass [21]) was 5 (Herbicidal rate of 90% or more (almost completely withered)) and the “herbicidal effect rating, F: southern crabgrass” value (southern crabgrass [22]) was 4 (Herbicidal rate of 70% or more and less than 90%). For the same compound, the “herbicidal effect on M: velvetleaf” value (velvetleaf [23]) was 5 (Herbicidal rate of 90% or more (almost completely withered)), the “herbicidal effect on L: windgrass” value (windgrass [24]) was 5 (Herbicidal rate of 90% or more (almost completely withered)) and the “herbicidal effect rating, H: barnyard grass” value (barnyard grass [25]) was 1 (Herbicidal rate of 5% or more and less than 20%).
